# Article PMC9054546, “Synthesis and molecular modeling studies of cholinesterase inhibitor dispiro[indoline-3,2′-pyrrolidine-3′,3′′-pyrrolidines]” (RSC Advances, 2020)
# Values joined by “and” are separate entries in the source; they are usually repeats but may differ in a detail not shown here. Equal entries are not always repeated. Where two headings read alike, the source gives them in different places.
# Assays:
# [1] = tested on: RPE1 (human immortalized retinal pigment epithelial cell line); assay: Antiproliferative/cytotoxicity MTT assay on normal cell line; assay type: cell-based; details: RPE-1, 72 h incubation, tested at 100, 50, 25 and 12.5 μM, read-out: IC50 against RPE1
# Text: Antiproliferative properties of the synthesized agents 8a–l were considered against RPE1 (human immortalized retinal pigment epithelial cell line) normal cell line utilizing the standard MTT (tetrazolium salt) technique.[37]
# The synthesized agents 8a–l were screened against RPE1 (human immortalized retinal pigment epithelial cell line) normal cell line to investigate their cytotoxicity by the standard mitochondrial dependent reduction of yellow MTT [3-(4,5-dimethylthiazol-2-yl)-2,5-diphenyl-tetrazolium bromide] to purple formazan technique.[37] Cells were suspended in DMEM in addition to 1% antibiotic–antimycotic mixture (10 000 μg mL^−1 potassium penicillin, 10 000 μg mL^−1 streptomycin sulfate and 25 μg mL^−1 amphotericin B), 10% fetal bovine serum and 1% L-glutamine at 37 °C, under 5% CO2 and 95% humidity. Cells were seeded at concentration of 30 000 cells per well in fresh complete growth medium in 96-well tissue culture microtiter plates for 24 h. […] 0.5% DMSO was used as negative control. Triplicate wells were prepared for each individual dose. After 72 h of incubation, medium was aspirated, 40 μl MTT salt (2.5 mg mL^−1) were added to each well and incubated for further 4 h at 37 °C. To stop the reaction and dissolve the formed crystals, 150 μL of 10% sodium dodecyl sulfate (SDS) in deionized water were added to each well and incubated overnight at 37 °C.
# Data were collected as mean values for experiments performed in triplicates for each individual dose which had been measured by MTT assay. […] The percentage of cell survival was calculated according to the following equation. [drawing 1]
# Statistical calculations for determination of the mean and standard error values were determined by SPSS 16 software.
# BChE [2] = biological target: T1, BChE (Homo sapiens, UniProt P06276); assay: 2D-QSAR (BMLR, CODESSA-Pro) model, BChE inhibitors; details: observed minus estimated IC50
# Text: (§1) The cholinesterase properties observed were undertaken by CODESSA-Pro software accessible for optimizing 2D-QSAR models.[39–41] This is useful for well understanding the bio-observations and identifying the parameters necessary for bio-potency. Three descriptor QSAR models were developed due to the AChE and BChE inhibitory properties of the synthesized dispiro-compounds 8a–l (ESI Tables S4–S9, Fig. S40 and S41, details of the QSAR descriptors are also mentioned in the ESI). ^† […]
# (§2) Goodness of the QSAR models was supported by the comparative values of the correlation coefficient (R^2) with their cross validation of leave one-out (R^2cvOO) and leave many-out (R^2cvMO) [R^2 = 0.923, 0.979; R^2cvOO = 0.882, 0.936; R^2cvMO = 0.904, 0.956, for AChE and BChE models, respectively]. Standard deviation (s^2) and Fisher criteria (F) values of the models also support their goodness (s^2 = 0.026, 0.005; […]. Additionally, the correlations of the observed and predicted values “specially the high potent synthesized compounds” add good support for the attained models. […]
# (§3) Molecular modeling studies
# (§4) The synthesized dispiro[indoline-3,2'-pyrrolidine-3',3''-pyrrolidines] 8a‒l […]
# (§5) 2D-QSAR modeling by CODESSA-Pro (comprehensive descriptors for structural and statistical analysis) software. Geometry of the compounds was initially optimized by AM1 technique using hyperChem 8.0 then, uploaded to CODESSA-Pro for final geometrical structure optimization by MOPAC.10‒12 CODESSA-Pro calculated 656 molecular descriptors (constitutional, topological, geometrical, charge-related, semi-empirical, thermodynamical, molecular-type, atomic-type and bond-type descriptors) for […]
# (§6) the exported bio-active agents. Mathematical transformation of the experimental values […]
# (§7) QSAR model. The best multi-linear regression (BMLR) technique was utilized which is a stepwise search for the best n-parameter regression equations (where n stands for the number of descriptors used), based on the highest R2 (squared correlation coefficient), R2cvOO (squared cross-validation “leave one-out, LOO” coefficient), R2cvMO (squared cross-validation “leave many-out up to 20% of the training set, LMO” coefficient), F (Fisher statistical significance criteria) values, and s2 (standard deviation). The QSAR up to 3-descriptor model describing the biological activity of the bio-active agents were generated (obeying the thumb rule of 4:1 which is the ratio between the data points and the number of QSAR descriptor).
# (§8) Minimum (>0.1) bond order for atom C is an atomic type descriptor with the […]
# (§9) why the higher descriptor value, the lower AChE inhibitory efficacy of the tested agent as […]
# (§10) 2/SQRT(TMSA) (MOPAC PC) is a charge related descriptor with relatively high […]
# (§11) . Compounds with high descriptor value predicted low AChE
# (§12) 0.11715). HDCA2 (area weighed surface charge of hydrogen bonding donor atoms) can be calculated by equ. (1). 13
# (§13) HDCA2 = D … .DtotH‒donor (1)
# (§14) Where, standsSD for the solvent accessible surface area of H-bonding donor H atoms (selected by threshold charge), is the partialqD charge on H-bonding donor H atoms (selected by threshold charge) and is the totalStot solvent accessible molecular surface […]
# (§15) Square root of surface area for atom C is also a charge related descriptor with […]
# (§16) . For this reason, the higher descriptor value of […]
# partial positively and negatively charged surface area can be calculated by equs. (2) and […]
# PPSA3 = A … .. (2)A∈{δA>0}
# PNSA3 = A … ..A∈{δA>0} (3)
# Where, is the positively/negativelySA charged solvent accessible atomic surface area and qA is the atomic partial charge.
# ZX Shadow/ZX rectangle is a geometrical descriptor with the highest coefficient […]
# . The higher descriptor value of […]
# compounds 8c and 8e, respectively). Relative shadow areas of a molecule can be determined by equ. (4). 13
# Where, C is contour of the projection of the molecule on the plane defined by two principal axes of the molecule (k = XY, XZ or YZ plane), , , = X • ν –x or yρ –y or zS(k) […]
# Maximum atomic state energy for atom O is an atomic type descriptor. […]
# AChE [3] = biological target: T2, AChE (Homo sapiens, UniProt P22303); assay: biochemical; details: for SI(AChE/BChE): selectivity index = IC50 (AChE)/IC50 (BChE)
# Protocol: Butyrylthiocholine iodide and acetylthiocholine were utilized as substrates in BChE and AChE assays, respectively, where DTNB was served as indicator. All compounds were dissolved in MeOH. […] Blank assays were performed by replacing the enzyme (20 μL) with buffer and their absorbances were recorded for correction of the spontaneous lysis of the indicator or inherent color of the inhibitor.
# Selectivity index (SI) for acetyl and butyryl cholinesterases was calculated as follow:SI(AChE/BChE) = IC50 (AChE)/IC50 (BChE)SI(BChE/AChE) = […]
# AChE [4] = biological target: T2, AChE; assay: 2D-QSAR (BMLR, CODESSA-Pro) model, AChE inhibitors; details: observed minus estimated IC50
# Text: as §1, §2, §3, §4, §5, §6, §7, §8, §9, §10, §11, §12, §13, §14, §15, §16
# BChE [5] = biological target: T1, BChE; assay: biochemical; details: for SI(BChE/AChE): selectivity index BChE/AChE
# Protocol: Butyrylthiocholine iodide and acetylthiocholine were utilized as substrates in BChE and AChE assays, respectively, where DTNB was served as indicator. All compounds were dissolved in MeOH. […] Blank assays were performed by replacing the enzyme (20 μL) with buffer and their absorbances were recorded for correction of the spontaneous lysis of the indicator or inherent color of the inhibitor. […]
# [6] = 10 min incubation at 25 °C, read at 405 nm, read-out: IC50 of AChE (μM) ± SD
# [7] = log transformation of the observed IC50, read-out: Observed log(IC50, μM), AChE (converted)
# [8] = 10 min incubation at 25 °C, read at 405 nm, read-out: IC50 of BChE (μM) ± SD
# [9] = log transformation of the observed IC50, read-out: Observed log(IC50, μM), BChE (converted)
# T1 sequence (P06276 29-602): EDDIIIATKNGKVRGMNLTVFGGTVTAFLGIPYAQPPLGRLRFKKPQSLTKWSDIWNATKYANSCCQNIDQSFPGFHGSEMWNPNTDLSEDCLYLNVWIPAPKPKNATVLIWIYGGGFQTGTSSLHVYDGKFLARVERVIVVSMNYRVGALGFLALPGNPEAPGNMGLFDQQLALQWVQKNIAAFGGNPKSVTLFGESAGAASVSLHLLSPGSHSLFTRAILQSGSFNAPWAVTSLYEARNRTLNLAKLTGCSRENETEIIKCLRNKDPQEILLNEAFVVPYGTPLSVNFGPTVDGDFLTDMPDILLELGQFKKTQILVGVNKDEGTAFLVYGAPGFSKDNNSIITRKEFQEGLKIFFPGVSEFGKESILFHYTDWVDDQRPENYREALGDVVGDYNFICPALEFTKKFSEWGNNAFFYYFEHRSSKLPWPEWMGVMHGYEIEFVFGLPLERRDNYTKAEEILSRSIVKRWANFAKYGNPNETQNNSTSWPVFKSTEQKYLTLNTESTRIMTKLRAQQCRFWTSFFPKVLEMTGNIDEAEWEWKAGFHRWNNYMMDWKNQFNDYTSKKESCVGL
# T2 sequence (P22303 32-614): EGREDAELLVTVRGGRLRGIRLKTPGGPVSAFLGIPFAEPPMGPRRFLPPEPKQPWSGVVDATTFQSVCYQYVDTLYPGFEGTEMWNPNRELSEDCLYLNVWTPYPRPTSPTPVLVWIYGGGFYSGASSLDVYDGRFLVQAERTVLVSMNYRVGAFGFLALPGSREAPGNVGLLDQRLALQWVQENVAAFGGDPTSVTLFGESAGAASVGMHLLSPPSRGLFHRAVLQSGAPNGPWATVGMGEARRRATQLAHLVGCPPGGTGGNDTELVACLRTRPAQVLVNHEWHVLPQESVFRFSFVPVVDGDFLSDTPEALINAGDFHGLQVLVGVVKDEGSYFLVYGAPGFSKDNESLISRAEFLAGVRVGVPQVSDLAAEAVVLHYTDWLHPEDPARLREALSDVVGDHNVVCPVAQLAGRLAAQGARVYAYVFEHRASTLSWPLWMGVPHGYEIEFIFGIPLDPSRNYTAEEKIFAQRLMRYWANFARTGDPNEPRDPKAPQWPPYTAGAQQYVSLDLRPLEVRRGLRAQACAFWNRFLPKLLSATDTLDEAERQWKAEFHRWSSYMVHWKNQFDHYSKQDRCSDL
SMILES,IC50 [1],"Error (difference between observed and estimated property values), BChE BMLR-QSAR model (BChE [2])",IC50 (AChE [3]; [6]),IC50 (AChE [3]; [7]),SI(AChE/BChE) (AChE [3]),"Error (difference between observed and estimated property values), AChE BMLR-QSAR model (AChE [4])",IC50 (BChE [5]; [8]),IC50 (BChE [5]; [9]),SI(BChE/AChE) (BChE [5])
"CN1CC(c2ccccc2)C2(CC(=O)N(c3ccccc3)C2=O)C12C(=O)Nc1ccccc12 (stereo not drawn) [Compound 8a, 1′-Methyl-1′′,4′-diphenyldispiro[indoline-3,2′-pyrrolidine-3′,3′′-pyrrolidine]-2,2′′,5′′-trione]",> 100 µM,12.80 µM,117 µM,117 µM,1.43,-13.41 µM,81.8 µM,81.8 µM,0.70
"CN1CC(c2ccccc2)C2(CC(=O)N(c3ccccc3)C2=O)C12C(=O)Nc1ccc(Cl)cc12 (stereo not drawn) [Compound 8b, 5-Chloro-1′-methyl-1′′,4′-diphenyldispiro[indoline-3,2′-pyrrolidine-3′,3′′-pyrrolidine]-2,2′′,5′′-trione]",> 100 µM,-6.64 µM,13.6 ± 0.62 µM,13.6 µM,0.32,0.13 µM,42.5 µM and 42.4 µM,42.5 µM,3.12
"CN1CC(c2ccccc2)C2(CC(=O)N(c3ccc(Cl)cc3)C2=O)C12C(=O)Nc1ccc(Cl)cc12 (stereo not drawn) [Compound 8i, 5-Chloro-1′′-(4-chlorophenyl)-1′-methyl-4′-phenyldispiro[indoline-3,2′-pyrrolidine-3′,3′′-pyrrolidine]-2,2′′,5′′-trione]",> 100 µM,-3.48 µM,39.4 µM,39.4 µM,1.12,-3.69 µM,35.1 µM,35.1 µM,0.89
"CN1CC(c2ccc(Cl)cc2)C2(CC(=O)N(c3ccc(Cl)cc3)C2=O)C12C(=O)Nc1ccccc12 (stereo not drawn) [Compound 8j, 1′′,4′-Bis(4-chlorophenyl)-1′-methyldispiro[indoline-3,2′-pyrrolidine-3′,3′′-pyrrolidine]-2,2′′,5′′-trione]",> 100 µM,1.51 µM,21 µM,21 µM,1.54,-0.80 µM,13.6 µM,13.6 µM,0.65
"COc1ccc2c(c1)C1(C(=O)N2)N(C)CC(c2ccccc2)C12CC(=O)N(c1ccccc1)C2=O (stereo not drawn) [Compound 8c, 5-Methoxy-1′-methyl-1′′,4′-diphenyldispiro[indoline-3,2′-pyrrolidine-3′,3′′-pyrrolidine]-2,2′′,5′′-trione]",> 100 µM,7.44 µM,103 µM,103 µM,1.43,18.50 µM,71.7 µM,71.7 µM,0.70
"COc1ccc2c(c1)C1(C(=O)N2)N(C)CC(c2ccc(Cl)cc2)C12CC(=O)N(c1ccc(Cl)cc1)C2=O (stereo not drawn) [Compound 8l, 1′′,4′-Bis(4-chlorophenyl)-5-methoxy-1′-methyldispiro[indoline-3,2′-pyrrolidine-3′,3′′-pyrrolidine]-2,2′′,5′′-trione]",> 100 µM,-0.71 µM,22 µM,22 µM,0.62,-7.93 µM,35.54 ± 0.33 µM,35.5 µM,1.62
"CN1CC(c2ccc(Cl)cc2)C2(CC(=O)N(c3ccccc3)C2=O)C12C(=O)Nc1ccc(Cl)cc12 (stereo not drawn) [Compound 8d, 5-Chloro-4′-(4-chlorophenyl)-1′-methyl-1′′-phenyldispiro[indoline-3,2′-pyrrolidine-3′,3′′-pyrrolidine]-2,2′′,5′′-trione]",> 100 µM,-5.91 µM,24.3 ± 4.08 µM,24.3 µM,1.14,13.92 µM,21.3 µM,21.3 µM,0.88
